Source: paper PMC12308784, “Organometallic Half-Sandwich Complexes of 1,10-Phenanthroline Derivatives with Improved Solubility, Albumin-Binding, and Nanoformulation Potential Targeting Drug Resistance in Cancer” (Inorganic Chemistry, 2025)

Columns and labels:
[1] = target: T1, human serum albumin (HSA) (Homo sapiens, UniProt P02768); assay: HSA binding by capillary zone electrophoresis (CZE); details: for equiv of complex bound on HSA: CZE
T1 construct: purchased Sigma-Aldrich A8763
Experimental: UV–vis is a simple technique to follow the interaction of half-sandwich metal complexes with HSA in time. Charge transfer bands of the complexes were monitored over a 12 h period (as shown for the RhCp*BP – HSA (1.5:1) system in Figure S16). An initial rapid spectral change can be observed, which is followed by a slower spectral evolution. This phenomenon may indicate (i) a rapid binding interaction followed by a slow rearrangement of the coordination sphere around the Rh center or (ii) that the differing accessibility of binding sites results in biphasic binding kinetics. […] In contrast, minimal spectral changes were detected for the RuCym complexes. […] To further substantiate this observation, CZE was applied. In Figure , the peak of the free RhCp*BP complex is clearly separated from the peaks of the comigrating protein and the protein-bound complex. […] Whereas ca. 50% of the complex is protein-bound after the first 5 min, the equilibration takes ca. 3–4 h. This observation confirms that the accessibility of binding sites for the complexes is not equal in HSA.
6 (a) Electropherograms of the RhCp*BP complex in the absence and presence of 0.5 equiv HSA at pH = 7.4 followed in time and (b) the relative peak area of free RhCp*BP at 210 nm (migration time: 7.4 min) as a function of incubation time. {c complex = 95 μM, c HSA = 48 μM; U = 8 kV; current = 105 μA; PBS’; t = 25 °C}.
The interaction of complex [RhCp*(BP)-Cl]Cl (ca. 100 μM) with HSA (ca. 50 μM) in PBS’ medium was studied by an Agilent 7100 capillary electrophoresis system equipped with a diode-array UV–vis detector (200–600 nm). Fused silica capillaries of 48 cm total length with a 75 μm inner diameter were used (Agilent Technologies). The background electrolyte (BGE) was PBS’ buffer (pH = 7.4), in which the samples were also made. The conditioning process of new capillaries and daily preparation were performed as described formerly. In order to ensure a steady baseline, the capillary was flushed with BGE (2 min) before each run and was rinsed with NaOH (0.1 M; 1.5 min), H2O (1.5 min), and then with BGE (2 min) after each run. The capillary cassette was kept at 25 °C. The hydrodynamic injection was used at 50 mbar for 5 s injection time. For separation, an 8 kV voltage (with ca. 100 μA current) was applied. The sample run time was set to 18 min. The computer program ChemStation (Agilent) was used to record electropherograms.

[2] = ternary complex formation with histidine model 1-methylimidazole by 1H NMR; details: PBS’ pH 7.4
Excerpt: Our other aim was to investigate the binding kinetics of RuCymBP over a longer period of time, since MeIm has no such stability problems compared to HSA in a 2 week follow-up.
Slow exchange of the aqua and chlorido complexes on the NMR time scale is not unique for RuCym complexes; formerly we have observed the same phenomenon with 2-picolinate and cyclometalated 4-phenylthiazole complexes. , The ternary complex formation with MeIm is rather slow; at a 1:1 ratio, the emergence of a new peak can be observed after 6 days, and only ca. 10% ternary complex forms after 14 days. By increasing the MeIm excess to 10-fold, the ternary complex becomes detectable after 8 h and about 2/3 of the metal complex transforms to the ternary species after 14 days. ^1H NMR studies on the RhCp*BP – MeIm system indicated a more rapid and almost quantitative interaction (Figure S21). […] The quantity of the ternary complex formed with MeIm agrees very well with previously reported data on RhCp*BPY–MeIm (67%), although the complex formation was reported to be slower for the latter. […]
A Bruker AVANCE III HD Ascend 500 Plus instrument was used for NMR studies. For the characterization of the complexes both the ^1H and ^13C NMR spectra were recorded in CD3OD (10 mM, t = 25 °C). […]
Figure S 19. Fluorescence emission spectra of HSA in the presence of RhCp*BP over 5 h { cRhCp*BP = […]

[3] = release in PBS’ by modified equilibrium dialysis; assay type: physicochemical; details: nonformulated complex, PBS’ pH 7.4
Experimental: The release behavior of RhCp*BP in PBS’ buffer (pH = 7.4) was monitored using a modified equilibrium dialysis device (Figures S22 and S23), and the absorbance (proportional to the complex concentration) was measured for the dialysate phase by online UV–vis spectrophotometry over a period of 16 h.
The release experiments were conducted in PBS’ medium using modified rapid equilibrium dialysis (RED) inserts of Thermo Scientific. Briefly, the receiver compartment of the RED insert was removed in order to fit the dialysis bag into a regular 1 cm quartz cuvette (see Figure S19 for the layout). The dialysis bag (donor compartment) contained 300 μL of aqueous solution of the formulation or the metal complex alone (c = 60 μM) or the HSA or HTP-based formulations. The cuvette was the acceptor/receiver compartment containing PBS’ buffer (2.0 mL). The whole device was capped with the parafilm and the buffer in the cuvette was continuously stirred; no stirring was applied in the RED insert. The release of the complex into the buffer was monitored online using an Agilent Cary 3500 eight-channel photometer. All samples were done in duplicate.

[4] = 0.5 equiv HSA, PBS’ pH 7.4, 25 °C
[5] = c complex = 95 μM, c HSA = 48 μM, PBS’ pH 7.4, 25 °C

T1 sequence (P02768 25-609): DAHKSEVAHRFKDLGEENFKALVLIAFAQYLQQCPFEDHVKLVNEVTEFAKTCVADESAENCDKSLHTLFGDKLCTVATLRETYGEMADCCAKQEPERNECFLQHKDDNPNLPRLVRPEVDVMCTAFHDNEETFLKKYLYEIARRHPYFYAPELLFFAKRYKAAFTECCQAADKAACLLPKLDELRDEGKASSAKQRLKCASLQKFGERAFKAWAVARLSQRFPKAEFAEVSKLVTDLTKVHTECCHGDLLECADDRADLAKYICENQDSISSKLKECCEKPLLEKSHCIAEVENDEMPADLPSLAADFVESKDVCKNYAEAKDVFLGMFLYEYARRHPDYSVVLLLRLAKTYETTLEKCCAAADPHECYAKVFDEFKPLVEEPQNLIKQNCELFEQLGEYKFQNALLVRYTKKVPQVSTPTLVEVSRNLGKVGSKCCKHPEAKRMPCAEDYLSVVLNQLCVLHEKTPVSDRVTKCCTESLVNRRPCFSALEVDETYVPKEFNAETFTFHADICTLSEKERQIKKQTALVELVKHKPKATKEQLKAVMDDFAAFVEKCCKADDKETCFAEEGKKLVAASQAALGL

Molecule	metal complex unbound after 24 h [1, 4]	equiv of complex bound on HSA [1]	time until the ternary complex is detectable ([2]; 10-fold MeIm excess)	time until the ternary complex peak emerges ([2]; complex:MeIm 1:1)	free complex after 4 h [1, 4]	complex protein-bound after the first 5 min [1, 5]	equilibration time of HSA binding [1, 5]	time for complete diffusion into PBS’ medium [3]
Cc1c(C)c(C)[c-](C)c1C.Clc1ccnc2c1ccc1c(Cl)ccnc12.[Cl-].[Cl-].[Rh+3] [RhCp*DCP, [Rh(III)(η^5-C5Me5)(4,7-dichloro-1,10-phenanthroline)Cl]Cl]	21%	at least 2 equiv						
Cc1ccc(C(C)C)cc1.[Cl-].[Cl-].[Ru+2].c1ccc(-c2ccnc3c2ccc2c(-c4ccccc4)ccnc23)cc1 [RuCymBP, [Ru(II)(η^6-p-cymene)(bathophenanthroline)Cl]Cl]			8 h	6 days				
[Rh(III)(η^5-C5Me5)(bathophenanthroline)Cl]Cl [RhCp*BP]		at least 2 equiv			7%	ca. 50%	3 to 4 h	approximately 9 h
